Experimental data taken from patent US10383960B2, “Small molecule imaging of fungi by positron emission tomography scanning” (The United States of America, as represented by the …, priority 2013, dated 2019).

Tested on: Aspergillus
Source text: Compounds such as calcofluor can be used for visualizing a broad range of medically relevant fungi under the microscope, due to their specific nature of binding, high level fluorescence (detectable under the microscope) and low binding to patient tissue. Calcofluor is a fairly non-toxic compound that is used to dye clothes, due to its high affinity for cellulose-containing cotton fibers. It has also been used to follow ground water migration due to its fluorescent properties and low toxicity.

O=S(=O)([O-])c1cc(Nc2nc(Nc3ccccc3)nc(N(CCO)CCO)n2)ccc1C=Cc1ccc(Nc2nc(Nc3ccccc3)nc(N(CCO)CCO)n2)cc1S(=O)(=O)[O-].[Na+].[Na+] [calcofluor]
recovery of injected compound in lung tissue (in vivo): could be recovered in harvested lung tissue | fluorescent staining of fungal hyphae in lung tissue (microscope, lung tissue removed from subject infected with Aspergillus): demonstrated fluorescent fungal hyphal forms under the microscope
